Measurements taken from patent US10561115B2 (priority 2016, dated 2020).
Where “and” joins values, the source holds several entries; their conditions need not be identical. Equal entries are not always repeated.

Tests used:
[1] = test system: propiconazole resistant mutants of Chlorella species (PcZ-1); test: Growth (OD at 750 nm) of PcZ-1 mutant with and without 10 μM propiconazole, compared with wild type; type: cell-based, Chlorella sorokiniana; conditions: for Average % increase PcZ-1 + 10 uM PcZ / % increase PcZ-1 + 10 μM PcZ: PcZ-1 with 10 μM propiconazole vs wild type without propiconazole; for % increase PcZ-1 + 10 μM PcZ: individual replicates, listed as PcZ
Protocol: (§1) Chlorella sorokiniana cells (Wild type) and propiconazole resistant mutants of Chlorella species (PcZ-1) were inoculated at 0.1-0.15 OD@750 nm (each set in triplicates). To verify the effect of methanol (propiconazole was dissolved in methanol), one set was treated with 0.1% methanol. One set of flasks in triplicate of Wild type and PcZ-1 mutants were inoculated with and without 10 μM propiconazole. After inoculation flasks were kept in 12 h light/12 hour dark cycles of white light in an incubator shaker at 100 rpm. The temperature was 28° C., 70% humidity and 2% ambient CO2. 3 mL sample was removed each day, to determine the Optical density (OD) of the culture at 750 nm. The results obtained are as illustrated in FIG. 1.
FIG. 1 illustrates a graph of the growth comparison between wild type Chlorella sorokiniana and propiconazole resistant mutants of Chlorella species Chlorella sorokiniana mutant PcZ-1, in the presence of propiconazole, wherein A represents wild type Chlorella sorokiniana grown in the absence of propiconazole, B represents wild type Chlorella sorokiniana grown in the presence of 0.1% methanol, C represents wild type Chlorella sorokiniana grown in the presence of 10 μM propiconazole, D represents PcZ-1 grown in the absence of propiconazole, E represents PcZ-1 grown in the presence of 0.1% methanol, and F represents PcZ-1 grown in the presence of 10 μM propiconazole. […] The propiconazole resistant mutants of Chlorella species (PcZ-1) was not affected by the presence of propiconazole, and continued to grow.

grazers = conditions: general statement, no test described; cited from earlier work
[2] = test system: wild type Chlorella sorokiniana; test: Growth (OD at 750 nm) of wild type Chlorella sorokiniana in the presence of propiconazole; type: cell-based; conditions: 10 μM propiconazole; culture typically crashes after a few days
Protocol: as §1
FIG. 1 illustrates a graph of the growth comparison between wild type Chlorella sorokiniana and propiconazole resistant mutants of Chlorella species Chlorella sorokiniana mutant PcZ-1, in the presence of propiconazole, wherein A represents wild type Chlorella sorokiniana grown in the absence of propiconazole, B represents wild type Chlorella sorokiniana grown in the presence of 0.1% methanol, C represents wild type Chlorella sorokiniana grown in the presence of 10 μM propiconazole, D represents PcZ-1 grown in the absence of propiconazole, E represents PcZ-1 grown in the presence of 0.1% methanol, and F represents PcZ-1 grown in the presence of 10 μM propiconazole. […]

SMILES: CCCC1COC(Cn2cncn2)(c2ccc(Cl)cc2Cl)O1 (stereo not drawn) [propiconazole, Propiconazole]
- Growth of PcZ-1 in the presence of propiconazole ([1]; 10 μM propiconazole, continued to grow): not affected
- Average % increase PcZ-1 + 10 uM PcZ ([1]; day 4): 60.2%
- % increase PcZ-1 + 10 μM PcZ ([1]; day 4): 45.5% and 66.7% and 68.6%
- Average % increase PcZ-1 + 10 uM PcZ ([1]; day 6): 27.1%
- % increase PcZ-1 + 10 μM PcZ ([1]; day 6): 17.3% and 38.7% and 25.4%
- Average % increase PcZ-1 + 10 uM PcZ ([1]; day 7): 21.1%
- % increase PcZ-1 + 10 μM PcZ ([1]; day 7): 10.6% and 29.4% and 23.2%
- Concentration at which propiconazole is a potent grazicide (grazers): ≥ 0.5 ppm
- Growth of the wild type Chlorella sorokiniana in the presence of propiconazole [2]: inhibited
